Test results taken from ChEMBL document CHEMBL4376820, “Homodimeric Tobramycin Adjuvant Repurposes Novobiocin as an Effective Antibacterial Agent against Gram-Negative Bacteria” (J Med Chem, 2019).
Calls of active or inactive are those of the source. The calls are words filed in the database; no cut-off is given here.

Tests used:
Enterobacter cloacae [1] = test: Potentiation of novobiocin-induced antibacterial activity against colistin-resistant Enterobacter cloacae 121187 clinical solate assessed as fold reduction in novobiocin MIC incubated for 18 hrs by CLSI protocol based assay relative to novobiocin MIC; type: functional
Escherichia coli [2] = test: Antibacterial activity against colistin-resistant Escherichia coli 94474 clinical isolate harboring mcr-1 gene incubated for 18 hrs by CLSI protocol based assay; type: functional; conditions: Escherichia coli, 94474, 18 h
Pseudomonas aeruginosa [3] = test: Synergistic antibacterial activity against wild type Pseudomonas aeruginosa PAO1 assessed as potentiation of doxycycline-induced antibacterial effect incubated for 18 hrs by checkerboard assay relative to doxycycline alone; type: functional
Pseudomonas aeruginosa [4] = test: Induction of outer membrane permeabilization in Pseudomonas aeruginosa PAO1 assessed as increase in accumulation of NPN by measuring fluorescence intensity measured immediately by NPN dye uptake assay; type: organism-based
Klebsiella pneumoniae [5] = test: Antibacterial activity against colistin-resistant Klebsiella pneumoniae 113254 clinical isolate incubated for 18 hrs by CLSI protocol based assay; type: functional; conditions: Klebsiella pneumoniae, 113254, 18 h
Pseudomonas aeruginosa [6] = test: Antibacterial activity against colistin and carbapenem-resistant Pseudomonas aeruginosa 101243 clinical isolate incubated for 18 hrs by CLSI protocol based assay; type: functional; conditions: Pseudomonas aeruginosa, 101243, 18 h
Acinetobacter baumannii [7] = test: Antibacterial activity against Acinetobacter baumannii LAC-4 clinical isolate incubated for 18 hrs by CLSI protocol based assay; type: functional; conditions: LAC-4, 18 h
Pseudomonas aeruginosa [8] = test: Synergistic antibacterial activity against wild type Pseudomonas aeruginosa PAO1 assessed as potentiation of cefotaxime-induced antibacterial effect incubated for 18 hrs by checkerboard assay relative to cefotaxime alone; type: functional
Pseudomonas aeruginosa [9] = test: Potentiation of novobiocin-induced antibacterial activity against carbapenem-resistant Pseudomonas aeruginosa 264-104354 clinical isolate assessed as fold reduction in novobiocin MIC incubated for 18 hrs by CLSI protocol based assay relative to novobiocin MIC; type: functional
Acinetobacter baumannii [10] = test: Potentiation of novobiocin-induced antibacterial activity against novobiocin and colistin resistant Acinetobacter baumannii ATCC 17978 mutant generated from seven serial passages by checkerboard assay; type: functional, organism-based
Acinetobacter baumannii [11] = test: Antibacterial activity against wild type Acinetobacter baumannii ATCC 17978 assessed as resistant development at 7.1 uM measured after 3 days of passaging in presence of novobiocin by microbroth dilution method relative to control; type: functional
Pseudomonas aeruginosa [12] = test: Synergistic antibacterial activity against wild type Pseudomonas aeruginosa PAO1 assessed as potentiation of ceftazidime-induced antibacterial effect incubated for 18 hrs by checkerboard assay; type: functional, organism-based
Acinetobacter baumannii [13] = test: Potentiation of novobiocin-induced antibacterial activity against Acinetobacter baumannii 027 clinical isolate assessed as novobiocin MIC at <= 7.1 uM incubated for 18 hrs by CLSI protocol based assay (reference value: 8 ug/ml); type: functional; conditions: Acinetobacter baumannii, 027, 18 h
Klebsiella pneumoniae [14] = test: Potentiation of novobiocin-induced antibacterial activity against colistin-resistant Klebsiella pneumoniae 113254 clinical isolate assessed as fold reduction in novobiocin MIC incubated for 18 hrs by CLSI protocol based assay relative to novobiocin MIC; type: functional
Pseudomonas aeruginosa [15] = test: Antibacterial activity against wild type Pseudomonas aeruginosa PAO1 assessed as fractional inhibitory concentration index incubated for 18 hrs in presence of tobramycin by checkerboard assay; type: functional
[16] = Toxicity in Galleria mellonella larvae MDR Acinetobacter baumannii isolate assessed as mortality at 100 mg/kg measured after 24 hrs relative to control; type: ADME, organism-based; conditions: in vivo, read-out: Activity
Klebsiella pneumoniae [17] = test: Potentiation of novobiocin-induced antibacterial activity against Klebsiella pneumoniae 116381 clinical isolate assessed as novobiocin MIC at <= 7.1 uM incubated for 18 hrs by CLSI protocol based assay (reference value: 1024 ug/ml); type: functional; conditions: Klebsiella pneumoniae, 116381, 18 h
Enterobacter cloacae [18] = test: Potentiation of novobiocin-induced antibacterial activity against colistin-resistant Enterobacter cloacae 118568 clinical solate assessed as fold reduction in novobiocin MIC incubated for 18 hrs by CLSI protocol based assay relative to novobiocin MIC; type: functional
Escherichia coli [19] = test: Potentiation of novobiocin-induced antibacterial activity against wild type Escherichia coli ATCC 25922 assessed as novobiocin MIC at <= 7.1 uM incubated for 18 hrs by CLSI protocol based assay (reference value: 64 ug/ml); type: functional; conditions: ATCC 25922, 18 h
Klebsiella pneumoniae [20] = test: Potentiation of novobiocin-induced antibacterial activity against colistin-resistant Klebsiella pneumoniae 113250 clinical isolate assessed as novobiocin MIC at <= 7.1 uM incubated for 18 hrs by CLSI protocol based assay (reference value: 512 ug/ml); type: functional; conditions: Klebsiella pneumoniae, 113250, 18 h
Acinetobacter baumannii [21] = test: Antibacterial activity against colistin-resistant Acinetobacter baumannii ATCC 17978 mutant generated from seven serial passages by checkerboard assay; type: functional
Acinetobacter baumannii [22] = test: Antibacterial activity against wild type Acinetobacter baumannii ATCC 17978 incubated for 18 hrs by CLSI protocol based assay; type: functional; conditions: ATCC 17978, 18 h
Pseudomonas aeruginosa [23] = test: Synergistic antibacterial activity against wild type Pseudomonas aeruginosa PAO1 assessed as potentiation of minocycline-induced antibacterial effect incubated for 18 hrs by checkerboard assay; type: functional, organism-based
Pseudomonas aeruginosa [24] = test: Synergistic antibacterial activity against wild type Pseudomonas aeruginosa PAO1 assessed as potentiation of clindamycin-induced antibacterial effect incubated for 18 hrs by checkerboard assay; type: functional, organism-based
Pseudomonas aeruginosa [25] = test: Synergistic antibacterial activity against wild type Pseudomonas aeruginosa PAO1 assessed as potentiation of colistin-induced antibacterial effect at <=7.1 uM incubated for 18 hrs by checkerboard assay; type: functional, organism-based
Acinetobacter baumannii [26] = test: Antibacterial activity against novobiocin-resistant Acinetobacter baumannii ATCC 17978 mutant generated from seven serial passages by checkerboard assay; type: functional
Escherichia coli [27] = test: Potentiation of novobiocin-induced antibacterial activity against colistin-resistant Escherichia coli 94474 clinical isolate harboring mcr-1 gene assessed as novobiocin MIC at <= 7.1 uM incubated for 18 hrs by CLSI protocol based assay (reference value: 256 ug/ml); type: functional; conditions: Escherichia coli, 94474, 18 h
Pseudomonas aeruginosa [28] = test: Potentiation of novobiocin-induced antibacterial activity against carbapenem-resistant Pseudomonas aeruginosa 259-96918 clinical isolate assessed as novobiocin MIC at <= 7.1 uM incubated for 18 hrs by CLSI protocol based assay (reference value: 512 ug/ml); type: functional; conditions: 259-96918, 18 h
Pseudomonas aeruginosa [29] = test: Antibacterial activity against Pseudomonas aeruginosa 260-97103 clinical isolate incubated for 18 hrs by CLSI protocol based assay; type: functional; conditions: 260-97103, 18 h
Acinetobacter baumannii [30] = test: Bactericidal activity against Acinetobacter baumannii ATCC 17978 assessed as log reduction in colony forming units per ml at 7.1 uM in LB media after 9 hrs in presence of 50.4 uM novobiocin by time-kill assay; type: functional
Acinetobacter baumannii [31] = test: Potentiation of novobiocin-induced antibacterial activity against wild type Acinetobacter baumannii ATCC 17978 assessed as fold reduction in novobiocin MIC incubated for 18 hrs by CLSI protocol based assay relative to novobiocin MIC; type: functional
Pseudomonas aeruginosa [32] = test: Antibacterial activity against Pseudomonas aeruginosa 259-96918 clinical isolate incubated for 18 hrs by CLSI protocol based assay; type: functional; conditions: 259-96918, 18 h
Pseudomonas aeruginosa [33] = test: Potentiation of novobiocin-induced antibacterial activity against carbapenem-resistant Pseudomonas aeruginosa 262-101856 clinical isolate assessed as fold reduction in novobiocin MIC incubated for 18 hrs by CLSI protocol based assay relative to novobiocin MIC; type: functional
Escherichia coli [34] = test: Bactericidal activity against Escherichia coli ATCC […] assessed as log reduction in colony forming units per ml at 7.1 uM in LB media after 6 hrs in presence of 50.4 uM novobiocin by time-kill assay; type: functional

## NC[C@H]1O[C@H](O[C@H]2[C@H](OCCCCc3cn(CCCCO[C@@H]4[C@@H](O[C@H]5O[C@H](CO)[C@@H](O)[C@H](N)[C@H]5O)[C@H](N)C[C@H](N)[C@H]4O[C@H]4O[C@H](CN)[C@@H](O)C[C@H]4N)nn3)[C@@H](O[C@H]3O[C@H](CO)[C@@H](O)[C@H](N)[C@H]3O)[C@H](N)C[C@@H]2N)[C@H](N)C[C@@H]1O.O=C(O)C(F)(F)F.O=C(O)C(F)(F)F.O=C(O)C(F)(F)F.O=C(O)C(F)(F)F.O=C(O)C(F)(F)F.O=C(O)C(F)(F)F.O=C(O)C(F)(F)F.O=C(O)C(F)(F)F.O=C(O)C(F)(F)F.O=C(O)C(F)(F)F
Enterobacter cloacae [1]
  Ratio: 8
Escherichia coli [2]
  MIC: > 128 µg/mL
Pseudomonas aeruginosa [3]
  fold change (FC): 4 - 128
Pseudomonas aeruginosa [4]
  Activity: Dose-dependent effect
Klebsiella pneumoniae [5]
  MIC: > 128 µg/mL
Pseudomonas aeruginosa [6]
  MIC: > 128 µg/mL
Acinetobacter baumannii [7]
  MIC: > 128 µg/mL
Pseudomonas aeruginosa [8]
  fold change (FC): 4 - 128
Pseudomonas aeruginosa [9]
  Ratio: 64
Acinetobacter baumannii [10]
  Activity: inactive
Acinetobacter baumannii [11]
  fold change (FC): 4
Pseudomonas aeruginosa [12]
  Activity: Dose-dependent effect
Acinetobacter baumannii [13]
  MIC: 0.5 µg/mL
Klebsiella pneumoniae [14]
  Ratio: 16
Pseudomonas aeruginosa [15]
  fractional inhibitory concentration index (FICI): >4
[16]
  mortality at 24 h: 100%
Klebsiella pneumoniae [17]
  MIC: 8 µg/mL
Enterobacter cloacae [18]
  Ratio: 32
Escherichia coli [19]
  MIC: 2 µg/mL
Klebsiella pneumoniae [20]
  MIC: 16 µg/mL
Acinetobacter baumannii [21]
  MIC: < 0.031 µg/mL
Acinetobacter baumannii [22]
  MIC: > 128 µg/mL
Pseudomonas aeruginosa [23]
  Activity: Dose-dependent effect
Pseudomonas aeruginosa [24]
  Activity: Dose-dependent effect
Pseudomonas aeruginosa [25]
  Activity: inactive
Acinetobacter baumannii [26]
  MIC: 128 µg/mL
Escherichia coli [27]
  MIC: 16 µg/mL
Pseudomonas aeruginosa [28]
  MIC: 8 µg/mL
Pseudomonas aeruginosa [29]
  MIC: > 128 µg/mL
Acinetobacter baumannii [30]
  Activity: -5 CFU/ml
Acinetobacter baumannii [31]
  Ratio: 32
Pseudomonas aeruginosa [32]
  MIC: > 128 µg/mL
Pseudomonas aeruginosa [33]
  Ratio: 64
Escherichia coli [34]
  Activity: -5 CFU/ml
